# “And” between values parts separate entries of the source, which are not always exact repeats. Equal values may be shown once.
# Columns and labels:
# [1] = system: NS3/4A-expressing EL-4 cells; assay: In vivo challenge with NS3/4A-expressing EL-4 lymphoma cells, prophylactic and therapeutic; details: immunized only once; C57BL/6 mice
# Procedure: To confirm that inhibition of tumor growth using the NS3/4A-expressing EL-4 cell line is fully dependent on an NS3/4A-specific immune response a control experiment was performed. Groups of ten C57BL/6 mice were either left nonimmunized, or immunized twice with the coNS3/4A plasmid. Two weeks after the last immunization the mice were challenged with an s.c. injection of 10^6 native EL-4 or NS3/4A-expressing EL-4 cells (NS3/4A-EL-4). An NS3/4A-specific immune response was required for protection, since only the immunized mice were protected against growth of the NS3/4A-EL-4 cell line (FIG. 13). Thus, this H-2^b-restricted model behaves similarly to the SP2/0H-2^d restricted model.
# The tumor challenge model was then used to evaluate how effective the different immunogens were in priming a protective immunity against growth of NS3/4A-EL-4 tumor cells in vivo. […]
# In vivo challenge of immunized mice with the NS3/4A-expressing SP2/0 myeloma or EL-4 lymphoma cell line was performed according to the method described by Encke et al., supra. […] The kinetics of the tumor growth was determined by measuring the tumor size through the skin at days six to 20. […]
# To test the therapeutic effect of the vaccines groups of mice were inoculated with the tumor cells as described above. […] The tumor growth was monitored from day 6 to day 20.
# HBsAg = assay: EIA antibody titer to HBsAg after Engerix vaccine with or without ribavirin; assay type: in vivo, mice; details: 1 mg ribavirin mixed with 2 μg Engerix i.p., booster week four, bled week six
# From the text: (Engerix, SKB). […] A booster containing the same mixture was given on week four and all mice were bled on week six.
# rNS3 = assay: EIA antibody titre to rNS3 after immunization with rNS3 with or without ribavirin; assay type: in vivo, Balb/c mice; details: for Group mean titre (mean ± SD) to rNS3, Week 4 / Group mean titre (mean ± SD) to rNS3, Week 6 / Group mean titre (mean ± SD) to rNS3, Week 8 / Antibody titre to rNS3 at Week 4 / Antibody titre to rNS3 at Week 6 / Antibody titre to rNS3 at Week 8: i.p.; for Endpoint titre of rNS3 IgG at Week 1 / Endpoint titre of rNS3 IgG at Week 2 / Endpoint titre of rNS3 IgG at Week 3 / Antibody titre to rNS3 at Week 4 / Antibody titre to rNS3 at Week 6 / Antibody titre to rNS3 at Week 8: individual mouse
# Procedure: In a first set of experiments, groups of three to five Balb/c mice (BK Universal, Uppsala, Sweden) were immunized i.p or s.c. (e.g., at the base of the tail) with 10 μg or 100 μg of recombinant hepatitis C virus non-structural 3 (rNS3) protein. […] Mice were injected with a total volume of 100 μl per injection.
# At two and four weeks following i.p. immunization, all mice were bled by retro-orbital sampling. Serum samples were collected and analyzed for the presence of antibodies to rNS3. To determine the antibody titer, an enzyme immunoassay (EIA) was performed. (See e.g., Hultgren et al., J Gen Virol. 79:2381-91 (1998) and Hultgren et al., Clin. Diagn. Lab. Immunol. 4:630-632 (1997)). The antibody levels were recorded as the highest serum dilution giving an optical density at 405 nm more than twice that of non-immunized mice.
# At four, six and eight weeks the mice were bled and serum was separated and frozen. After completion of the study, sera were tested for the levels of antibodies to recombinant NS3, as described above. Mean antibody levels to rNS3 were compared between the groups using Student's t-test (parametric analysis) or Mann-Whitney (non-parametric analysis) and the software package StatView 4.5 (Abacus Concepts, Berkely, Calif.). […] The values given represent end point titres to recombinant rNS3.
# The levels of antibody to the antigen were then determined by EIA.
# A second set of experiments was also performed. […] The mice were bled at week six and rNS3-specific IgG levels were determined by EIA as described previously.
# CD4+ T cell = assay: In vitro recall assay, lymph node CD4+ T cell proliferation ([3H] thymidine); assay type: cell-based, mice; details: 100 μg rNS3 mixed with 1 mg ribavirin s.c.; ten days post-immunization; 96 h of culture
# Procedure: This assay can be used with any ribavirin derivative or combinations of ribavirin derivatives to determine the extent that a particular vaccine formulation modulates a cellular immune response. […] The mice were sacrificed ten days post-immunization and their lymph nodes were harvested and drained. In vitro recall assays were then performed. (See e.g., Hultgren et al., J Gen Virol. 79:2381-91 (1998) and Hultgren et al., Clin. Diagn. Lab. Immunol. 4:630-632 (1997)). The amount of CD4^+ T cell proliferation was determined at 96 h of culture by the incorporation of [^3H] thymidine.
# NS3 = assay: NS3-specific IgG subclass EIA after rNS3 with or without ribavirin; assay type: in vivo, mice; details: 0.1 or 1.0 mg ribavirin with 10 μg rNS3 i.p. at weeks 0 and 4; bled at week six
# Procedure: The mice were bled at week six and NS3-specific IgG subclasses were determined by EIA as described previously.
# [2] = 0.1 mg ribavirin mixed with 20 μg rNS3
# [3] = 1.0 mg ribavirin mixed with 20 μg rNS3
# [4] = 10.0 mg ribavirin mixed with 20 μg rNS3
# [5] = 10 mg ribavirin with 10 μg rNS3
# [6] = 10 mg ribavirin with 50 μg rNS3
compound,measurement,setting,value
"GAVQNEVTL (Artificial Peptide, NS3/4A H-2D Binding Peptide) [NS3-derived CTL peptide, ID; NO.: 37]",protection against growth of NS3/4A-EL-4 tumors,[1],not protected
"NC(=O)c1ncn([C@@H]2O[C@H](CO)[C@@H](O)[C@H]2O)n1 [ribavirin, 1-β-D-ribofuranosyl-1,2,4-triazole-3-carboxamide]",effect on the antibody response to HBsAg vaccine,HBsAg,enhanced the response
same,Mean endpoint titre of rNS3 IgG at Week 1,rNS3; [2],1110 ± 1484
same,Mean endpoint titre of rNS3 IgG at Week 2,rNS3; [2],5060 ± 6921
same,antibody titer compared with formulations composed of only rNS3,"rNS3; 1 mg of ribavirin and either 10 μg or 100 μg of rNS3, two weeks post-immunization",significantly greater antibody titer
same,Mean endpoint titre of rNS3 IgG at Week 1,rNS3; [3],360
same,Mean endpoint titre of rNS3 IgG at Week 3,rNS3; [3],5760 ± 6235
same,"Group mean titre (mean ± SD) to rNS3, Week 4",rNS3; 1 mg ribavirin with 10 μg rNS3,252 ± 107
same,"Group mean titre (mean ± SD) to rNS3, Week 6",rNS3; 1 mg ribavirin with 10 μg rNS3,28071 ± 16195
same,"Group mean titre (mean ± SD) to rNS3, Week 8",rNS3; 1 mg ribavirin with 10 μg rNS3,36642 ± 67565
same,"Group mean titre (mean ± SD) to rNS3, Week 4",rNS3; 1 mg ribavirin with 50 μg rNS3,150 ± 124
same,"Group mean titre (mean ± SD) to rNS3, Week 6",rNS3; 1 mg ribavirin with 50 μg rNS3,52500 ± 55549
same,"Group mean titre (mean ± SD) to rNS3, Week 8",rNS3; 1 mg ribavirin with 50 μg rNS3,37500 ± 62105
same,"Group mean titre (mean ± SD) to rNS3, Week 4",rNS3; 3 mg ribavirin with 10 μg rNS3,180 ± 128
same,"Group mean titre (mean ± SD) to rNS3, Week 6",rNS3; 3 mg ribavirin with 10 μg rNS3,30000 ± 13887
same,"Group mean titre (mean ± SD) to rNS3, Week 8",rNS3; 3 mg ribavirin with 10 μg rNS3,22500 ± 34637
same,"Group mean titre (mean ± SD) to rNS3, Week 4",rNS3; 3 mg ribavirin with 50 μg rNS3,387 ± 513
same,"Group mean titre (mean ± SD) to rNS3, Week 6",rNS3; 3 mg ribavirin with 50 μg rNS3,30000 ± 13887
same,Mean endpoint titre of rNS3 IgG at Week 1,rNS3; [4],360
same,Mean endpoint titre of rNS3 IgG at Week 2,rNS3; [4],5760 ± 6235
same,Mean endpoint titre of rNS3 IgG at Week 3,rNS3; [4],30960 ± 40888
same,"Group mean titre (mean ± SD) to rNS3, Week 4",rNS3; [5],220 ± 139
same,"Group mean titre (mean ± SD) to rNS3, Week 4",rNS3; [6],140 ± 124
same,"Group mean titre (mean ± SD) to rNS3, Week 6",rNS3; [6],10929 ± 11928
same,"Group mean titre (mean ± SD) to rNS3, Week 8",rNS3; [6],15214 ± 15380
same,"adjuvant effect on antibody levels, kinetics",rNS3; higher doses (1-10 mg) of ribavirin with 20 μg rNS3,enhance antibody levels at week three
same,Endpoint titre of rNS3 IgG at Week 1,rNS3; [2],2160 and 60 and <60
same,Endpoint titre of rNS3 IgG at Week 2,rNS3; [2],12960 and 60 and 2160
same,Endpoint titre of rNS3 IgG at Week 3,rNS3; [2],2160 (2×) and 60
same,Endpoint titre of rNS3 IgG at Week 1,rNS3; [3],<60 (2×) and 360
same,Endpoint titre of rNS3 IgG at Week 2,rNS3; [3],60 and 2160 (2×)
same,Endpoint titre of rNS3 IgG at Week 3,rNS3; [3],12960 and 2160 (2×)
same,Antibody titre to rNS3 at Week 4,rNS3; 1 mg ribavirin with 10 μg rNS3,300 (4×) and <60 (3×) and 60
same,Antibody titre to rNS3 at Week 6,rNS3; 1 mg ribavirin with 10 μg rNS3,37500 (5×) and 1500 and 7500
same,Antibody titre to rNS3 at Week 8,rNS3; 1 mg ribavirin with 10 μg rNS3,37500 and 1500 and 187500 and 7500 (4×)
same,Antibody titre to rNS3 at Week 4,rNS3; 1 mg ribavirin with 50 μg rNS3,60 (5×) and 300 (3×)
same,Antibody titre to rNS3 at Week 6,rNS3; 1 mg ribavirin with 50 μg rNS3,7500 and 37500 (6×) and 187500
same,Antibody titre to rNS3 at Week 8,rNS3; 1 mg ribavirin with 50 μg rNS3,7500 (5×) and 187500 and 37500 (2×)
same,Antibody titre to rNS3 at Week 4,rNS3; 3 mg ribavirin with 10 μg rNS3,60 (4×) and 300 (4×)
same,Antibody titre to rNS3 at Week 6,rNS3; 3 mg ribavirin with 10 μg rNS3,37500 (6×) and 7500 (2×)
same,Antibody titre to rNS3 at Week 8,rNS3; 3 mg ribavirin with 10 μg rNS3,7500 (4×) and 37500 (4×)
same,Antibody titre to rNS3 at Week 4,rNS3; 3 mg ribavirin with 50 μg rNS3,60 (3×) and 300 (3×) and 1500
same,Antibody titre to rNS3 at Week 6,rNS3; 3 mg ribavirin with 50 μg rNS3,37500 (6×) and 7500 (2×)
same,Antibody titre to rNS3 at Week 8,rNS3; 3 mg ribavirin with 50 μg rNS3,7500 (5×) and 37500 (3×)
same,Endpoint titre of rNS3 IgG at Week 1,rNS3; [4],360 (2×) and <60
same,Endpoint titre of rNS3 IgG at Week 2,rNS3; [4],12960 and 2160 (2×)
same,Endpoint titre of rNS3 IgG at Week 3,rNS3; [4],77760 and 12960 and 2160
same,Antibody titre to rNS3 at Week 4,rNS3; [5],300 (2×) and <60 (5×) and 60
same,Antibody titre to rNS3 at Week 6,rNS3; [5],37500 (3×) and 300 (2×) and 7500 (2×)
same,Antibody titre to rNS3 at Week 8,rNS3; [5],37500 (3×) and 300 (2×) and 7500 (2×)
same,Antibody titre to rNS3 at Week 4,rNS3; [6],300 (2×) and 60 (5×)
same,Antibody titre to rNS3 at Week 6,rNS3; [6],7500 (5×) and 37500 (2×) and 1500
same,Antibody titre to rNS3 at Week 8,rNS3; [6],7500 (5×) and 37500 (2×) and 1500
same,"adjuvant effect on antibody levels, kinetics",rNS3; low doses (<1 mg) of ribavirin with 20 μg rNS3,enhance antibody levels at week one but not at week three
same,T cell proliferative response compared with 100 μg rNS3 in PBS,CD4+ T cell,much greater T cell proliferative response
same,effect on the NS3-specific IgG subclass response,NS3,does not change the IgG subclass response

# Reference: patent publication US7968697B2, “Hepatitis C virus non-structural NS3/4A fusion gene” (ChronTech Pharma AB, priority 2005, dated 2011)
